Assay results published in publication PMC13168289, “Potent acridone antimalarial against all three life stages of Plasmodium” (Nature Communications, 2026).
Values joined by “and” are separate entries in the source; they are usually repeats but may differ in a detail not shown here. Equal values may be shown once.

Tests used:
[1] = tested on: P. cynomolgi hypnozoites and schizonts; design: method as in PMID: 21483865; conditions: primary hepatocyte P. cynomolgi assays; ref PMID: 21483865; read-out: in vitro liver-stage IC50; cited from earlier work
[2] = in vivo pharmacokinetics, single oral dose; design: species or system ICR-CD1 mice; conditions: 40 mg/kg oral
Experimental: PK studies were conducted using well-established methods[21],[31],[50]. Four to five weeks old male and female outbred ICR-CD1 mice (Charles River Laboratories. Inc. Raleigh, NC) weighing 23–35 g were used for PK studies. Animals were assigned unique study numbers via ear tags and cage cards and were randomly assigned to treatment or control groups (n = 3 per group) using a weigh-stratified randomization procedure. All animals were quarantined and acclimatized for 7 days prior to study initiation and were housed in a 12:12 light/dark cycle with food and water provided ad libitum. […] At each time point, a terminal whole blood sample was collected by cardiac puncture using heparinized syringes (Heparin, Hospira, Lake Forest, IL), while mice were under anesthesia in accordance with the approved IACUC protocol. Following the separation of appropriate aliquots, plasma was obtained from the whole blood via centrifugation at 16,200 rpm for 10 min at 4 °C. Mice were humanely euthanized as described in the protocol, after which the liver samples were also collected and weighed at each experimental time point. All tissue samples were immediately preserved on dry ice and later stored at −80 °C until analytical work was performed. Drug concentrations were determined for each sample taken from animals dosed with the test compound. PK parameters such as time to maximum plasma concentration (Tmax), maximum plasma concentration (Cmax), the apparent elimination half-life (t1/2), area under the curve (AUC), etc., were obtained using noncompartmental analysis via the Phoenix WinNonlin software package (version 6.4; Pharsight Corp., Mountain View, CA).

[3] = tested on: normal and G6PD-deficient RBCs; assay: eryptosis assay (annexin-V binding, ROS, forward scatter); assay type: cell-based, human; conditions: 48 h incubation
Experimental: In vitro evaluation of eryptosis as a marker for induced hemolytic toxicity was performed using de-identified human blood samples obtained from the Clinical Trial Center at WRAIR, using established methods[55],[81],[82]. Fresh Li-heparin-anticoagulated blood samples was centrifuged and the platelet and leukocyte-containing supernatant was removed. […] Flow cytometry was employed to estimate stimulators of eryptosis: phosphatidylserine exposure at the cell surface from annexin-V-binding, reactive oxygen species (ROS) formation from 2′,7′-dichlorodihydrofluorescein diacetate (DCFDA) dependent fluorescence, and cell volume from forward scatter. […]
After incubation under the respective experimental condition, cell suspension was washed in Ringer solution containing CaCl2 and then stained with Annexin-V-FITC at 37 °C for 15 min under protection from light. The annexin-V-abundance at the erythrocyte surface was subsequently determined on a FACS Calibur. Annexin-V-binding was measured at an excitation wavelength of 488 nm and an emission wavelength of 530 nm. […]
Oxidative stress was determined utilizing DCFDA. […] The DCFDA-loaded erythrocytes were resuspended in Ringer solution and ROS-dependent fluorescence intensity was measured at an excitation wavelength of 488 nm and an emission wavelength of 530 nm on a FACS Calibur. Subsequently, the geomean of the DCFDA dependent fluorescence was determined. […]

[4] = tested on: Salmonella typhimurium TA98 and TA100; assay: Ames assay; assay type: cell-based; conditions: 10 µM; TA98 and TA100, with and without S9 activation
Experimental: Mutagenicity was assessed using the Ames assay[54] (EBPI, Ontario, Canada) against S. typhimurium TA100 and TA98, with and without S9 activation. The tester strain S. typhimurium (TA100 and TA98) cultures were inoculated from the lyophilized pellets and grown in nutrient broth provided by EBPI. Each inoculated vial (5 mL volume with antibiotics) was placed overnight in the incubator at 37 °C. The positive controls for the assay were 1.0 µg/µL 2-aminoanthracene (2-AA) for incubations with the S9 mix and 5 µg/mL sodium azide (NaN3, used for TA100) and 300 µg/mL 2-nitrofluorene (2NF, used for TA98) for incubations without the S9 mix. […] An aliquot (0.2 mL) of the mixture was then added to each well of a 96-well plate. The 96-well plates were covered, sealed in zip-lock bags, and incubated for 5 days at 37 °C. Plates were scored visually, and the positive wells against background mutations were statistically analyzed.

[5] = tested on: P. falciparum NF54 oocyst development in mosquitoes; assay: standard membrane feeding assay (SMFA); assay type: in vivo, P. falciparum in Anopheles stephensi; conditions: drug in blood meal
Experimental: The SMFA assay was performed using P. falciparum NF54 gametocytes produced in vitro[35]. P. falciparum NF54 gametocytes were grown in human blood cultured in RPMI 1640 GlutaMax medium (Gibco) supplemented with 25 mM HEPES, hypoxanthine, and human serum. De-identified human blood and serum were obtained from the Australian Red Cross Blood Service. Mature (stage V) gametocytes were quantified in Giemsa-stained blood smears. Immediately prior to infection, a feeding mixture comprising 45% human serum and 55% human blood containing 0.15% stage V gametocytes and the desired concentration of drug or vehicle control, was prepared and maintained at 37 °C. Adult female Anopheles stephensi (MR4) mosquitoes reared under the standard insectary conditions[79] were placed in mesh-topped cups and allowed to feed on the gametocyte mixtures in prewarmed glass feeders wrapped with parafilm. […] Mosquito midguts were dissected 7 days after infection, stained in 0.2% mercurochrome, and oocysts were counted using a light microscope.

| SMILES | IC50 [1] [nM] | AUCinf ([2]; female, liver) | AUClast ([2]; female, liver) | Cmax ([2]; female, liver) [ng/mL] | Tmax ([2]; female, liver) [h] | AUCinf ([2]; female, plasma) [ng·h/mL] | AUClast ([2]; female, plasma) [ng·h/mL] | Cmax ([2]; female, plasma) [ng/mL] | Tmax ([2]; female, plasma) [h] | AUCinf ([2]; male, liver) | AUClast ([2]; male, liver) | Cmax ([2]; male, liver) [ng/mL] | Tmax ([2]; male, liver) [h] | AUCinf ([2]; male, plasma) [ng·h/mL] | AUClast ([2]; male, plasma) [ng·h/mL] | Cmax ([2]; male, plasma) [ng/mL] | Tmax ([2]; male, plasma) [h] | eryptosis as marker of hemolytic toxicity [3] | Ames test result [4] | concentration that eliminated oocyst formation [5] |
| --- | --- | --- | --- | --- | --- | --- | --- | --- | --- | --- | --- | --- | --- | --- | --- | --- | --- | --- | --- | --- |
| O=C1C(O)=C([C@H]2CC[C@H](c3ccc(Cl)cc3)CC2)C(=O)c2ccccc21 [ATV, atovaquone] | ~2000 |  |  |  |  |  |  |  |  |  |  |  |  |  |  |  |  |  |  |  |
| O=c1c2ccc(Oc3ccc(OC(F)(F)F)cc3)cc2[nH]c2cc(Cl)cc(F)c12 [T111] |  | 23,495 ng.h/mL | 23,384 ng.h/mL | 1503 | 8.0 | 185 | 169 | 11.3 | 4.0 | 26,044 ng.h/mL | 25,969 ng.h/mL | 1704 | 1.0 | 180 | 156 | 6.8 | 4.0 | did not show the toxicity seen with TQ | negative | 4.0 ng/mL and 9.5 nM |
